Assays:
[1] = target: T1, TrCel6A (Trichoderma reesei, UniProt P07987); experiment: Inhibition of hydrolysis of 14C-BMCC by TrCel6A; type: biochemical; details: TrCel6A, 14C-BMCC, 50°C
T1 construct: TrCel6A was purified from the culture filtrate of Tr QM 9414 as described previously; made in house; host or cells: Trichoderma reesei QM 9414 culture filtrate (native producer)
From the text: (§1) Here, we characterized the cellobiose and glucose inhibition of TrCel6A and its thermophilic counterpart, CtCel6A [9, 63]. First, the cellobiose inhibition of the synergistic hydrolysis of ^14C-BC by TrCel6A and TrCel5A was studied (Figure 7A). As TrCel6A was less sensitive to cellobiose inhibition than TrCel7A, the contribution of the cellobiose released during hydrolysis was not significant, and an average (DCB/DCB=0) over all time points was used in plotting (DCB/DCB=0) versus [cellobiose] (Figure 7D). No significant systematic variation of DCB/DCB=0 depending on hydrolysis time was observed. As in the case of GH7 CBHs, the IC50 value was found using Equations 5 and 6. Because the IC50 value for synergistic hydrolysis (Table 3) was of the same order as the apparent Ki value reported for TrCel5A [31], we further tested the inhibition of individual TrCel6A. BC is not a good substrate for TrCel6A, but its acid-treated derivative, BMCC, is readily degraded by the enzyme. Therefore, we prepared ^14C-BMCC by the heterogeneous acid hydrolysis of ^14C-BC. […]
(§2) GH6 CBHs were assessed by observing the hydrolysis of ^14C-BMCC. ^14C-BMCC (0.25 g l^-1) was incubated (with shaking at 350 rpm) with CBH (0.25 μM) and N188BG (0.06 μM) in 50 mM sodium acetate buffer, pH 5.0, containing BSA (0.1 g l^-1). […]

[2] = target: CtCel6A (Chaetomium thermophilum, UniProt G0SD43); experiment: Inhibition of hydrolysis of 14C-BMCC by CtCel6A; type: biochemical; details: CtCel6A, 14C-BMCC, 50°C
From the text: as §1, §2

[3] = target: T2, TrCel5A (Trichoderma reesei, UniProt P07982); set-up: method as in PMID 23410927; details: cited from earlier work
T2 construct: TrCel7B, TrCel5A, and TrCel12A were purified from the culture filtrate of Tr QM 9414; made in house; host or cells: Trichoderma reesei QM 9414 culture filtrate (native producer)

[4] = system: GH7 CBHs; set-up: method as in PMID 18512263; details: MUL as substrate of the GH7 CBHs; cited from earlier work

T2 sequence (P07982 22-418): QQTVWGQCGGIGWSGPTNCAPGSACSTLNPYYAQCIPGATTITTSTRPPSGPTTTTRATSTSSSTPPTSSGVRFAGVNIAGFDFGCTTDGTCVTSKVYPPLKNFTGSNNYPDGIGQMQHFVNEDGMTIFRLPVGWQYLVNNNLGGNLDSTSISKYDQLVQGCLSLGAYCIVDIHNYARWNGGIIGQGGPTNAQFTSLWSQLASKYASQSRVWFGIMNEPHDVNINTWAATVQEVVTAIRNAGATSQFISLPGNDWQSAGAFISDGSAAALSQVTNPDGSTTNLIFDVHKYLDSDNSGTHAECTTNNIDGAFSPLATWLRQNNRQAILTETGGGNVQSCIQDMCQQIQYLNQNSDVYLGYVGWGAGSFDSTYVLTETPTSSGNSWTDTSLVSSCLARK
T1 sequence (P07987 25-471): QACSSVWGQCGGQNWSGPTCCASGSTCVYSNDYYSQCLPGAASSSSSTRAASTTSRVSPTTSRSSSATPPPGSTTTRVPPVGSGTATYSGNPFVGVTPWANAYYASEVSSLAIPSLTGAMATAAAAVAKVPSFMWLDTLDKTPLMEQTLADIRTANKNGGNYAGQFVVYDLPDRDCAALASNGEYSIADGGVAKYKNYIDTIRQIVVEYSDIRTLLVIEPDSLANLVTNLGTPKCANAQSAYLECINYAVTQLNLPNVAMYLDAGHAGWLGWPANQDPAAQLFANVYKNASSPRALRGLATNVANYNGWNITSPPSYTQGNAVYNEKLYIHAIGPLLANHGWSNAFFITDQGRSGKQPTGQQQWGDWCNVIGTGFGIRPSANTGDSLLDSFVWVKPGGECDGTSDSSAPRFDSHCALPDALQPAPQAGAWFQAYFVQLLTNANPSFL
CtCel6A, sequence (G0SD43 entry or part of it): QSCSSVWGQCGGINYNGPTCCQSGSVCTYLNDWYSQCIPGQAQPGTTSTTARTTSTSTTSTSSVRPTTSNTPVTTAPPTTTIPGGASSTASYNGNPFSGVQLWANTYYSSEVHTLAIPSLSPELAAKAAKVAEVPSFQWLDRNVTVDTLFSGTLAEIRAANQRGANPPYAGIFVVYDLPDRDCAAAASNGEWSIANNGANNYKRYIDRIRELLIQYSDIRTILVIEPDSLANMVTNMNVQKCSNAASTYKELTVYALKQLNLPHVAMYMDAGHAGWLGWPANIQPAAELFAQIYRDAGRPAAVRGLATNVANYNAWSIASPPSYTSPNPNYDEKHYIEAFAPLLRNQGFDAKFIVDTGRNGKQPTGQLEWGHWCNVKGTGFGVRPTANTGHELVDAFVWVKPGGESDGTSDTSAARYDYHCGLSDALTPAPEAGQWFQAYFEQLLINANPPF

## OC[C@H]1OC(O)[C@H](O)[C@@H](O)[C@@H]1O (stereo partly shown) [glucose, Glucose]
[1]
  times weaker inhibitor than cellobiose: approximately 10 times
[2]
  times weaker inhibitor than cellobiose: approximately 10 times
[3]
  inhibition by glucose: not significantly inhibited

## Cc1cc(=O)oc2cc(O[C@@H]3O[C@H](CO)[C@@H](O[C@@H]4O[C@H](CO)[C@H](O)[C@H](O)[C@H]4O)[C@H](O)[C@H]3O)ccc12 [MUL, 4-methylumbelliferyl-β-lactoside]
[4]
  Km: ~300 µM

Reference: publication PMC3726336, “Product inhibition of cellulases studied with ^14C-labeled cellulose substrates” (Biotechnology for Biofuels, 2013)
